Structures can show the parent of a compound that is named as a salt.
Tests used:
Rat FAAH-1 = biological target: T1, Rat FAAH-1 (Rattus norvegicus, UniProt P97612); experiment: Rat FAAH-1 assay (Assay Method 2), 3H-anandamide hydrolysis in cell homogenate; type: biochemical
T1 construct: expressed in transfected cells
T1 sequence (P97612 1-579): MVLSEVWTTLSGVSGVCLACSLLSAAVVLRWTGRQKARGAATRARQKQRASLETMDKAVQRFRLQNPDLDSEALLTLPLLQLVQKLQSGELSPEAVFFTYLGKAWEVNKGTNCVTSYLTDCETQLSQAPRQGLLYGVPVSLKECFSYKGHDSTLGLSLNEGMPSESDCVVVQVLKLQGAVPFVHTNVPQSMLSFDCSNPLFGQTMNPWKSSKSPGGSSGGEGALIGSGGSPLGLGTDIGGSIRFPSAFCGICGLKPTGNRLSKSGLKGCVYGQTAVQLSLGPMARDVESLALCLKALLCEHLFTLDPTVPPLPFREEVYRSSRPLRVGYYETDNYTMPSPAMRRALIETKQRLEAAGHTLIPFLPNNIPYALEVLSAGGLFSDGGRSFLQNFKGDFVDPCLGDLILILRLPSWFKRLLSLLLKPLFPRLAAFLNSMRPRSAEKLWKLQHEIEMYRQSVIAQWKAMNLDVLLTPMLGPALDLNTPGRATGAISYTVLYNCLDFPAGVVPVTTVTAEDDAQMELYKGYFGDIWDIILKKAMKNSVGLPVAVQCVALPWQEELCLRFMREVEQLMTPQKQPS
Description: A. Transfection of Cells with Rat FAAH-1
(§1) A 10-cm tissue culture dish with a confluent monolayer of SK-N-MC cells was split 2 days (d) prior to transfection. Using sterile technique, the media was removed and the cells were detached from the dish by the addition of trypsin. One fifth of the cells were then placed onto a new 10-cm dish. Cells were grown in a 37° C. incubator with 5% CO2 in Minimal Essential Media Eagle with 10% Fetal Bovine Serum. After 2 d, cells were approximately 80% confluent. These cells were removed from the dish with trypsin and pelleted in a clinical centrifuge. The pellet was re-suspended in 400 μL complete media and transferred to an electroporation cuvette with a 0.4 cm gap between the electrodes. Supercoiled rat FAAH cDNA (1 μg) was added to the cells and mixed. The voltage for the electroporation was set at 0.25 kV, and the capacitance was set at 960 μF. After electroporation, the cells were diluted into complete media (10 mL) and plated onto four 10-cm dishes. Because of the variability in the efficiency of electroporation, four different concentrations of cells were plated. The ratios used were 1:20, 1:10, and 1:5, with the remainder of the cells being added to the fourth dish. The cells were allowed to recover for 24 h before adding the selection media (complete media with 600 μg/mL G418). After 10 d, dishes were analyzed for surviving colonies of cells. Dishes with well-isolated colonies were used. Cells from individual colonies were isolated and tested.
(§2) The assay mixture consisted of 50 μL of the cell homogenate, 10 μL of the test compound, and 40 μL of anandamide [1-^3H-ethanolamine] (^3H-AEA, Perkin-Elmer, 10.3 Ci/mmol), which was added last, for a final tracer concentration of 80 nM. The reaction mixture was incubated at rt for 1 h. During the incubation, 96-well Multiscreen filter plates (catalog number MAFCNOB50; Millipore, Bedford, Mass., USA) were loaded with 25 μL of activated charcoal (Multiscreen column loader, catalog number MACL09625, Millipore) and washed once with 100 μL of MeOH. Also during the incubation, 96-well DYNEX MicroLite plates (catalog number NL510410) were loaded with 100 μL of MicroScint40 (catalog number 6013641, Packard Bioscience, Meriden, Conn., USA). After the 1 h incubation, 60 μL of the reaction mixture were transferred to the charcoal plates, which were then assembled on top of the DYNEX plates using Centrifuge Alignment Frames (catalog number MACF09604, Millipore). The unbound labeled ethanolamine was centrifuged through to the bottom plate (5 min at 2000 rpm), which was preloaded with the scintillant, as described above. The plates were sealed and left at rt for 1 h before counting on a Hewlett Packard TopCount.
(§3) Where activity is shown as greater than (>) a particular value, the value is the solubility limit of the compound in the assay medium or the highest concentration tested in the assay.

FAAH = biological target: T2, FAAH (Homo sapiens, UniProt O00519); experiment: Human FAAH assay (Assay Method 1), 3H-anandamide hydrolysis in cell homogenate; type: biochemical; parameters: expressed in transfected cells; alternatively T84 frozen cell pellets (endogenous FAAH)
T2 sequence (O00519 1-579): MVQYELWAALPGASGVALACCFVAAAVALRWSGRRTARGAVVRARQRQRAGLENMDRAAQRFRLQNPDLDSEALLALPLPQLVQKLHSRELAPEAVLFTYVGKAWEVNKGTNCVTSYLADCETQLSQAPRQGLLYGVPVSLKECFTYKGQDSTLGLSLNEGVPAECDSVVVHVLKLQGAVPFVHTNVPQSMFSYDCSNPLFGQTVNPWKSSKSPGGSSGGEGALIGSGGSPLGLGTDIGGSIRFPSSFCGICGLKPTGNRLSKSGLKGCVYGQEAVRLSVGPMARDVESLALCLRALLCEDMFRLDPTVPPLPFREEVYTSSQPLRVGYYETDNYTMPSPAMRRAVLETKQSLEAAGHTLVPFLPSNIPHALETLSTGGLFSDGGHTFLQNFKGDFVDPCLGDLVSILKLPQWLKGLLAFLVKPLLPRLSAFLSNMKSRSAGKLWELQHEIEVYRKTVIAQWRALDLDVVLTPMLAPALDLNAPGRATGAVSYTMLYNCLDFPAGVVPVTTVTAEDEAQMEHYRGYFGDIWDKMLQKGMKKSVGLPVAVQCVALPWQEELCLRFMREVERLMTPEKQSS
Description: A. Transfection of Cells with Human FAAH
as §1, with “Supercoiled human” for “Supercoiled rat”
as §2, with “[1-3H-ethanolamine]” for “[1-^3H-ethanolamine]”
as §3

| SMILES | IC50 (Rat FAAH-1) [nM] | IC50 (FAAH) [nM] |
| --- | --- | --- |
| CN(C)S(=O)(=O)c1ccc(-c2cc(NC[C@H](N)c3ccccc3)ncn2)cc1 [Example 23, 4-(6-{[(2R)-2-Amino-2-phenylethyl]amino}pyrimidin-4-yl)-N,N-dimethylbenzenesulfonamide hydrochloride acid salt] | 1600 | 113 |
| N[C@@H](CNc1cc(-c2ccc(C(F)(F)F)c(Cl)c2)ncn1)c1ccc(F)c(Cl)c1 [Example 47, (1R)—N^2-1-(3-Chloro-4-fluoro-phenyl)-[6-(3-chloro-4-trifluoromethyl-phenyl)-pyrimidin-4-yl]-ethane-1,2-diamine] | 115 | 120 |
| N[C@@H](CNc1cc(-c2ccc(C(F)(F)F)c(Cl)c2)ncn1)c1ccc(Cl)c(F)c1 [Example 45, (1R)—N^2-1-(4-Chloro-3-fluoro-phenyl)-[6-(3-chloro-4-trifluoromethyl-phenyl)-pyrimidin-4-yl]-ethane-1,2-diamine] | 70 | 80 |
| N[C@@H](CNc1cc(-c2ccc(Cl)c(Cl)c2)ncn1)c1ccccc1 [Example 16, (1R)—N^2-[6-(3,4-Dichlorophenyl)pyrimidin-4-yl]-1-phenylethane-1,2-diamine hydrochloride acid salt] | 500 | 90 |
| N[C@H](CNc1cc(-c2ccc(C(F)(F)F)c(Cl)c2)ncn1)c1ccc(F)c(F)c1 [Example 40, (1S)—N^2-[6-(3-Chloro-4-trifluoromethyl-phenyl)-pyrimidin-4-yl]-1-(3,4-difluoro-phenyl)-ethane-1,2-diamine, trifluoroacetic acid salt] | 5000 | 1000 |
| N[C@@H](CNc1cc(-c2ccc(C(F)(F)F)c(Cl)c2)ncn1)c1cccc(F)c1 [Example 37, (1R)—N^2-[6-(3-Chloro-4-trifluoromethyl-phenyl)-pyrimidin-4-yl]-1-(3-fluoro-phenyl)-ethane-1,2-diamine, trifluoroacetic acid salt] | 110 | 39 |
| N[C@@H](CNc1cc(-c2ccc(C(F)(F)F)c(Cl)c2)ncn1)c1ccc(F)c(F)c1 [Example 41, (1R)—N^2-[6-(3-Chloro-4-trifluoromethyl-phenyl)-pyrimidin-4-yl]-1-(3,4-difluoro-phenyl)-ethane-1,2-diamine, trifluoroacetic acid salt] | 60 | 20 |
| N#Cc1ccc([C@@H](N)CNc2cc(-c3ccc(C(F)(F)F)c(Cl)c3)ncn2)cc1 [Example 34, (1R)-4-{1-Amino-2-[6-(3-chloro-4-trifluoromethyl-phenyl)-pyrimidin-4-ylamino]-ethyl}-benzonitrile] | 130 | 77 |
| N[C@@H](CNc1cc(-c2ccc(OCC(F)(F)F)c(F)c2)ncn1)c1ccccc1 [Example 21, (1R)—N^2-{6-[3-Fluoro-4-(2,2,2-trifluoroethoxy)phenyl]pyrimidin-4-yl}-1-phenylethane-1,2-diamine hydrochloride acid salt] | 675 | 77 |
| CCSc1ccc(-c2cc(NC[C@H](N)c3ccccc3)ncn2)cc1 [Example 22, (1R)—N^2-{6-[4-(Ethylsulfanyl)phenyl]pyrimidin-4-yl}-1-phenylethane-1,2-diamine hydrochloride acid salt] | 240 | 7 |
| N[C@H](CNc1cc(-c2ccc(C(F)(F)F)c(Cl)c2)ncn1)c1ccc(C(F)(F)F)cc1 [Example 29, (1S)—N^2-[6-(3-Chloro-4-trifluoromethyl-phenyl)-pyrimidin-4-yl]-1-(4-trifluoromethyl-phenyl)-ethane-1,2-diamine] | 1700 | 1400 |
| N[C@@H](CNc1cc(-c2ccc(OC(F)(F)F)c(F)c2)ncn1)c1ccc(F)cc1 [Example 64, (1R)—N^2-1-(4-Fluoro-phenyl)-[6-(3-fluoro-4-trifluoromethoxy-phenyl)-pyrimidin-4-yl]-ethane-1,2-diamine, trifluoroacetic acid salt] | 75 | 66 |
| N[C@H](CNc1cc(-c2ccc(C(F)(F)F)c(Cl)c2)ncn1)c1ccc(Cl)cc1 [Example 38, (1S)—N^2-1-(4-Chloro-phenyl)-[6-(3-chloro-4-trifluoromethyl-phenyl)-pyrimidin-4-yl]-ethane-1,2-diamine, trifluoroacetic acid salt] | 2200 | 1600 |
| CCOc1ccc(-c2cc(NC[C@H](N)c3ccccc3)ncn2)cc1C(F)(F)F [Example 10, (1R)—N^2-{6-[4-Ethoxy-3-(trifluoromethyl)phenyl]pyrimidin-4-yl}-1-phenylethane-1,2-diamine hydrochloride acid salt] | 84 | 26 |
